Laboratory results reported in US11708367B2, “Compounds for the treatment of kinase-dependent disorders” (Exelixis, Inc., priority 2018, dated 2023).

Key:
Human Axl = Human Axl (Homo sapiens (Human), UniProt P30530, Q764R); test: Human AXL kinase assay (33P radiometric, KinaseProfiler); assay type: biochemical; conditions: 10 μM ATP
Mer = Mer (Homo sapiens (Human), UniProt Q12866); test: Human Mer kinase assay (33P radiometric, KinaseProfiler); assay type: biochemical; conditions: 10 μM ATP
Met [1] = biological target: T1, Met (Homo sapiens (Human), UniProt P08581); test: Met autophosphorylation ELISA in PC-3 cells; assay type: cell-based; conditions: cellular, HGF-stimulated, phospho-Met ELISA, read-out: c-Met IC50
Procedure, shortened: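 Serum-starved PC-3 cells treated 1 h with compound (8-point series, 0.3% DMSO), then stimulated 10 min with 100 ng/mL HGF. Phospho-Met (panTyr) quantified in lysates by sandwich ELISA; IC50 from 4-parameter logistic fit against DMSO and reference-inhibitor controls.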
Target sequence in this assay (P08581 25-1390): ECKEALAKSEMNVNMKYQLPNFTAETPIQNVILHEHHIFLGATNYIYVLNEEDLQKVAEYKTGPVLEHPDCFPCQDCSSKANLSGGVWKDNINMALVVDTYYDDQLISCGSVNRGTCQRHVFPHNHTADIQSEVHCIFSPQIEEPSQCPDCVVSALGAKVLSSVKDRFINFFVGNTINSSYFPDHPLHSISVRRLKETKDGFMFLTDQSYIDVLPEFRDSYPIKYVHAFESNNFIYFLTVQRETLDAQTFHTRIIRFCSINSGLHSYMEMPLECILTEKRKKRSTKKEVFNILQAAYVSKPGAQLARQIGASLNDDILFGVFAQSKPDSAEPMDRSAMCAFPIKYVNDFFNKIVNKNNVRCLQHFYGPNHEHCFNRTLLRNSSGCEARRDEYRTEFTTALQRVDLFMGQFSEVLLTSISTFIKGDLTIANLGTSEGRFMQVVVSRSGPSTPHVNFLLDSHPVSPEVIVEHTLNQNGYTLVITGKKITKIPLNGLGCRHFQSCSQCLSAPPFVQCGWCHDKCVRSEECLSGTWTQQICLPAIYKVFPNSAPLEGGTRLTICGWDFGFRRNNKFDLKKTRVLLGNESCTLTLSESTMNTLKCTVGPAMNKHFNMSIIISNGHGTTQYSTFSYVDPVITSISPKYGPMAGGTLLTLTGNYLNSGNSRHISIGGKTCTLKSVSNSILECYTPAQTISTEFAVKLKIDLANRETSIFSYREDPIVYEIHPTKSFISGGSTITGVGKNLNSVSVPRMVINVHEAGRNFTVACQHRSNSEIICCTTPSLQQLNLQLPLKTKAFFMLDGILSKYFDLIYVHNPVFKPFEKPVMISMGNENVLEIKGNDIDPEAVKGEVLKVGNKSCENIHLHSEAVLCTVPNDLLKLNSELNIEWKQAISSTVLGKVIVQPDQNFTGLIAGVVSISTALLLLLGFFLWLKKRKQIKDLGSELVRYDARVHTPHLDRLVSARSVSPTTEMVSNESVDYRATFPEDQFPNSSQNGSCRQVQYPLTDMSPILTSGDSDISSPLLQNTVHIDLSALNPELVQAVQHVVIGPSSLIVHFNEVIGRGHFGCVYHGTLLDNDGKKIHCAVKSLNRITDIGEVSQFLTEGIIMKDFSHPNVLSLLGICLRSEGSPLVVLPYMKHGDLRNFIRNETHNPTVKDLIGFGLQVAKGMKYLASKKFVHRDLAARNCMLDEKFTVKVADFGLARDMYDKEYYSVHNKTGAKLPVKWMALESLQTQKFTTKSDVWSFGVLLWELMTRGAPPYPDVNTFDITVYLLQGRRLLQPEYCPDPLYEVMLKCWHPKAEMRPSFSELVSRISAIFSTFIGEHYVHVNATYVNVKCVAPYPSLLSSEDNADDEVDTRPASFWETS

Met [2] = biological target: T1, Met; test: Human Met kinase assay (33P radiometric, KinaseProfiler); assay type: biochemical; conditions: 10 μM ATP, read-out: c-Met IC50

Chain of Human Axl (P30530 473-894 Q764R): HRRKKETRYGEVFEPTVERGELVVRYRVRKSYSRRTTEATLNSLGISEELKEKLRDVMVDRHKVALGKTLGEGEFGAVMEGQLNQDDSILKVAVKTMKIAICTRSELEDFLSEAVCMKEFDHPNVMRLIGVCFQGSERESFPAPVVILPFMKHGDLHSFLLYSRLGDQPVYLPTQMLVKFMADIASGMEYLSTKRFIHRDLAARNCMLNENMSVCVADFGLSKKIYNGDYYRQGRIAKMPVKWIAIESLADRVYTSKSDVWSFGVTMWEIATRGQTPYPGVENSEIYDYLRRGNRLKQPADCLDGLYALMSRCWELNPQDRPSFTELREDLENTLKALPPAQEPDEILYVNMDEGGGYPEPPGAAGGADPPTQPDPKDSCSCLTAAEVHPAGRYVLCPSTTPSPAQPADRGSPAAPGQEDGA
Chain of Mer (Q12866 557-882): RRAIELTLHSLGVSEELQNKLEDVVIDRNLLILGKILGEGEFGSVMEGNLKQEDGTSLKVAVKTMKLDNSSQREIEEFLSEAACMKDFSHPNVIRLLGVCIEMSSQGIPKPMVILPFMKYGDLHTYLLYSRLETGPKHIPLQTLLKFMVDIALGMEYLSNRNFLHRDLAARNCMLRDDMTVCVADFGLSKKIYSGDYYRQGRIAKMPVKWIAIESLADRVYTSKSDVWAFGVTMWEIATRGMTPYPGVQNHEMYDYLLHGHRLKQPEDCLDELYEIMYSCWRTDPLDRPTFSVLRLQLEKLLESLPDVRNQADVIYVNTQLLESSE

IC50 (Human Axl) [µM]	IC50 (Mer) [µM]	IC50 (Met [1]) [µM]	IC50 (Met [2]) [µM]	Structure (SMILES)
≤ 0.01	≤ 0.01	≤ 0.01	≤ 0.01	COc1cc2nccc(Oc3ccc(NC(=O)C4(C(=O)Nc5ccc(F)cc5)CC4)cc3F)c2nc1OC [Compound 140, 1-N′-[4-[(6,7-dimethoxy-1,5-naphthyridin-4-yl)oxy]-3-fluorophenyl]-1-N-(4-fluorophenyl)cyclopropane-1,1-dicarboxamide]
0.01 to 0.1	≤ 0.01	≤ 0.01	≤ 0.01	COc1cc2nccc(Oc3ccc(NC(=O)C4(C(=O)Nc5ccc(F)cc5)CC4)cc3Cl)c2nc1OC [Compound 141, 1-N′-[3-chloro-4-[(6,7-dimethoxy-1,5-naphthyridin-4-yl)oxy]phenyl]-1-N-(4-fluorophenyl)cyclo-propane-1,1-dicarboxamide]
